Test system: adults with plaque psoriasis
Test: Long-term open-label extension study (PSOARING 3): Physician Global Assessment (PGA), treatment episodes, treatment success, remittive effect
Format: in vivo, human
Protocol: This extension study consisted of up to 40 weeks of treatment and a 4 week, safety follow up period.
At the completion of the Week 12 visit of the DB, pivotal Phase 3 study, eligibility of the subjects opting to enroll in this extension study was confirmed. Study visits during the treatment period for all subjects occurred every 4 weeks (±3 days). A phone call was performed at Week 2 (Day 15). Unscheduled visits may have occurred, as needed. Subjects who withdrew from this study before Week 40 returned to the study center for an Early Termination visit. The total duration of this extension study participation was 44 weeks. Subjects in this study were treated as follows based on their PGA score from the Week 12 visit in the DB, pivotal Phase 3 study (Study DMVT 505 3001 or Study DMVT 505 3002).
The PGA was used to assess the primary efficacy endpoint in this study. The PGA is a clinical tool for assessing the current state/severity of a subject's psoriasis at a given time point. It is a static, 5 point, morphological assessment of overall disease severity, as determined by the Investigator, using the clinical characteristics of erythema, scaling, and plaque thickness/elevation as guidelines; higher PGA scores represent more severe disease (0=clear, 1=almost clear, 2=mild, 3=moderate, and 4=severe). The BSA affected was not considered in scoring of the PGA. Variations of the PGA are frequently used in clinical studies because it is a simple assessment, similar to those used in clinical practice. The PGA was performed first, prior to the % BSA, PASI, and LTS assessments.
Time to event parameters, such as the time from treatment success to subsequent worsening (PGA≥2) or duration of treatment episode, were summarized by the Kaplan Meier product limit method using OC.

[1] = Baseline PGA = 0, Tapinarof (Pivotal) group
[2] = Baseline PGA = 0, Vehicle (Pivotal) group
[3] = Baseline PGA = 1, Tapinarof (Pivotal) group
[4] = Baseline PGA = 1, Vehicle (Pivotal) group
[5] = Baseline PGA = 2, Tapinarof (Pivotal) group

## CC(C)c1c(O)cc(/C=C/c2ccccc2)cc1O [Tapinarof, 3,5-Dihydroxy-4-isopropyl-trans-stilbene]
Baseline PGA = 0, Overall
  Average Duration of Episodes, Mean (SD): 91.4 (66.93) days
  Average Duration of Episodes, Median: 63.0 days
  Average Duration of Treatment Success, Mean (SD): 124.2 (87.66) days
  Average Duration of Treatment Success, Median: 98.0 days
  Duration of 1st Episode, Mean (SD): 92.9 (67.74) days
  Duration of 1st Episode, Median: 65.0 days
  Duration of 1st Success, Mean (SD): 125.1 (91.87) days
  Duration of 1st Success, Median: 112.0 days
  Duration of 2nd Episode, Mean (SD): 44.1 (25.97) days
  Duration of 2nd Episode, Median: 42.0 days
  Duration of 2nd Success, Mean (SD): 87.6 (67.05) days
  Duration of 2nd Success, Median: 71.0 days
  Duration of 3rd Episode, Mean (SD): 61.0 (NE) days
  Duration of 3rd Episode, Median: 61.0 days
  Duration of 3rd Success, Mean (SD): 33.0 (29.76) days
  Duration of 3rd Success, Median: 28.0 days
  Duration of Last Episode, Mean (SD): 89.9 (68.95) days
  Duration of Last Episode, Median: 63.0 days
  Duration of Last Success, Mean (SD): 121.6 (98.44) days
  Duration of Last Success, Median: 112.0 days
  Total Duration of Treatment Episodes, Mean (SD): 109.2 (61.94) days
  Total Duration of Treatment Episodes, Median: 94.0 days
  Total Duration of Treatment Success, Mean (SD): 167.9 (84.48) days
  Total Duration of Treatment Success, Median: 170.0 days
[1]
  Average Duration of Episodes, Mean (SD): 90.2 (65.67) days
  Average Duration of Episodes, Median: 63.0 days
  Average Duration of Treatment Success, Mean (SD): 119.7 (82.74) days
  Average Duration of Treatment Success, Median: 98.0 days
  Duration of 1st Episode, Mean (SD): 91.7 (66.66) days
  Duration of 1st Episode, Median: 65.0 days
  Duration of 1st Success, Mean (SD): 120.3 (87.83) days
  Duration of 1st Success, Median: 112.0 days
  Duration of 2nd Episode, Mean (SD): 44.9 (26.43) days
  Duration of 2nd Episode, Median: 43.0 days
  Duration of 2nd Success, Mean (SD): 89.1 (67.03) days
  Duration of 2nd Success, Median: 71.0 days
  Duration of 3rd Episode, Mean (SD): 61.0 (NE) days
  Duration of 3rd Episode, Median: 61.0 days
  Duration of 3rd Success, Mean (SD): 36.2 (29.31) days
  Duration of 3rd Success, Median: 28.5 days
  Duration of Last Episode, Mean (SD): 88.8 (67.68) days
  Duration of Last Episode, Median: 63.0 days
  Duration of Last Success, Mean (SD): 118.0 (93.58) days
  Duration of Last Success, Median: 112.0 days
  Total Duration of Treatment Episodes, Median: 94.0 days
  Total Duration of Treatment Success, Mean (SD): 164.3 (82.24) days
  Total Duration of Treatment Success, Median: 168.0 days
[2]
  Average Duration of Episodes, Mean (SD): 122.8 (124.80) days
  Average Duration of Episodes, Median: 122.8 days
  Average Duration of Treatment Success, Mean (SD): 191.0 (136.91) days
  Average Duration of Treatment Success, Median: 280.0 days
  Duration of 1st Episode, Mean (SD): 126.0 (120.21) days
  Duration of 1st Episode, Median: 126.0 days
  Duration of 1st Success, Mean (SD): 195.2 (130.61) days
  Duration of 1st Success, Median: 280.0 days
  Duration of 2nd Episode, Mean (SD): 28.0 (NE) days
  Duration of 2nd Episode, Median: 28.0 days
  Duration of 2nd Success, Mean (SD): 63.5 (88.39) days
  Duration of 2nd Success, Median: 63.5 days
  Duration of 3rd Success, Mean (SD): 1.0 (NE) days
  Duration of 3rd Success, Median: 1.0 days
  Duration of Last Episode, Mean (SD): 119.5 (129.40) days
  Duration of Last Episode, Median: 119.5 days
  Duration of Last Success, Mean (SD): 174.4 (158.72) days
  Duration of Last Success, Median: 280.0 days
  Total Duration of Treatment Episodes, Mean (SD): 140.0 (100.41) days
  Total Duration of Treatment Episodes, Median: 140.0 days
  Total Duration of Treatment Success, Mean (SD): 220.8 (109.21) days
  Total Duration of Treatment Success, Median: 280.0 days
Baseline PGA = 1, Overall
  Average Duration of Episodes, Mean (SD): 140.1 (95.01) days
  Average Duration of Episodes, Median: 112.0 days
  Average Duration of Treatment Success, Median: 98.0 days
  Duration of 1st Episode, Mean (SD): 133.5 (100.06) days
  Duration of 1st Episode, Median: 87.0 days
  Duration of 1st Success, Mean (SD): 107.2 (76.62) days
  Duration of 1st Success, Median: 90.0 days
  Duration of 2nd Episode, Mean (SD): 98.4 (61.51) days
  Duration of 2nd Episode, Median: 85.0 days
  Duration of 2nd Success, Mean (SD): 75.4 (59.40) days
  Duration of 2nd Success, Median: 56.0 days
  Duration of 3rd Episode, Mean (SD): 54.9 (56.83) days
  Duration of 3rd Episode, Median: 28.0 days
  Duration of 3rd Success, Mean (SD): 15.0 (19.80) days
  Duration of 3rd Success, Median: 15.0 days
  Duration of Last Episode, Mean (SD): 146.7 (95.87) days
  Duration of Last Episode, Median: 141.0 days
  Duration of Last Success, Median: 90.0 days
  Total Duration of Treatment Episodes, Mean (SD): 165.9 (90.32) days
  Total Duration of Treatment Episodes, Median: 193.0 days
  Total Duration of Treatment Success, Mean (SD): 124.5 (78.53) days
  Total Duration of Treatment Success, Median: 120.0 days
[3]
  Average Duration of Episodes, Mean (SD): 138.9 (94.99) days
  Average Duration of Episodes, Median: 112.0 days
  Average Duration of Treatment Success, Mean (SD): 106.8 (76.36) days
  Average Duration of Treatment Success, Median: 92.5 days
  Duration of 1st Episode, Mean (SD): 132.6 (99.69) days
  Duration of 1st Episode, Median: 85.5 days
  Duration of 1st Success, Mean (SD): 106.3 (77.57) days
  Duration of 1st Success, Median: 86.0 days
  Duration of 2nd Episode, Mean (SD): 97.9 (62.19) days
  Duration of 2nd Episode, Median: 83.0 days
  Duration of 2nd Success, Mean (SD): 71.6 (58.68) days
  Duration of 2nd Success, Median: 52.0 days
  Duration of 3rd Episode, Mean (SD): 54.9 (56.83) days
  Duration of 3rd Episode, Median: 28.0 days
  Duration of 3rd Success, Mean (SD): 15.0 (19.80) days
  Duration of 3rd Success, Median: 15.0 days
  Duration of Last Episode, Mean (SD): 145.2 (96.38) days
  Duration of Last Episode, Median: 144.0 days
  Duration of Last Success, Mean (SD): 107.2 (79.80) days
  Duration of Last Success, Median: 85.5 days
  Total Duration of Treatment Episodes, Mean (SD): 165.9 (90.68) days
  Total Duration of Treatment Episodes, Median: 194.5 days
  Total Duration of Treatment Success, Mean (SD): 123.7 (78.29) days
  Total Duration of Treatment Success, Median: 116.5 days
[4]
  Average Duration of Episodes, Mean (SD): 150.0 (97.54) days
  Average Duration of Episodes, Median: 112.0 days
  Average Duration of Treatment Success, Mean (SD): 116.9 (71.80) days
  Average Duration of Treatment Success, Median: 127.0 days
  Duration of 1st Episode, Mean (SD): 141.1 (105.95) days
  Duration of 1st Episode, Median: 112.0 days
  Duration of 1st Success, Mean (SD): 115.0 (71.74) days
  Duration of 1st Success, Median: 127.0 days
  Duration of 2nd Episode, Mean (SD): 104.0 (61.27) days
  Duration of 2nd Episode, Median: 109.5 days
  Duration of 2nd Success, Mean (SD): 144.0 (NE) days
  Duration of 2nd Success, Median: 144.0 days
  Duration of Last Episode, Mean (SD): 159.0 (93.38) days
  Duration of Last Episode, Median: 134.0 days
  Duration of Last Success, Mean (SD): 118.9 (72.32) days
  Duration of Last Success, Median: 136.0 days
  Total Duration of Treatment Episodes, Mean (SD): 165.5 (89.94) days
  Total Duration of Treatment Episodes, Median: 140.0 days
  Total Duration of Treatment Success, Mean (SD): 131.0 (85.06) days
  Total Duration of Treatment Success, Median: 136.0 days
Baseline PGA = 2, Overall
  Average Duration of Episodes, Mean (SD): 175.5 (93.95) days
  Average Duration of Episodes, Median: 197.0 days
  Average Duration of Treatment Success, Mean (SD): 83.6 (69.31) days
  Average Duration of Treatment Success, Median: 66.5 days
  Duration of 1st Episode, Mean (SD): 177.8 (92.43) days
  Duration of 1st Episode, Median: 197.0 days
  Duration of 1st Success, Mean (SD): 90.4 (72.34) days
  Duration of 1st Success, Median: 83.0 days
  Duration of 2nd Episode, Mean (SD): 67.5 (52.79) days
  Duration of 2nd Episode, Median: 59.0 days
  Duration of 2nd Success, Mean (SD): 31.9 (43.41) days
  Duration of 2nd Success, Median: 27.5 days
  Duration of 3rd Episode, Mean (SD): 28.7 (27.50) days
  Duration of 3rd Episode, Median: 29.0 days
  Duration of 3rd Success, Mean (SD): 29.0 (NE) days
  Duration of 3rd Success, Median: 29.0 days
  Duration of Last Episode, Mean (SD): 173.2 (97.88) days
  Duration of Last Episode, Median: 197.0 days
  Duration of Last Success, Mean (SD): 77.3 (73.84) days
  Duration of Last Success, Median: 56.0 days
  Total Duration of Treatment Episodes, Mean (SD): 188.8 (87.61) days
  Total Duration of Treatment Episodes, Median: 200.0 days
  Total Duration of Treatment Success, Mean (SD): 98.0 (74.01) days
  Total Duration of Treatment Success, Median: 84.0 days
[5]
  Average Duration of Episodes, Mean (SD): 177.3 (95.45) days
  Average Duration of Episodes, Median: 197.0 days
  Average Duration of Treatment Success, Mean (SD): 78.7 (71.03) days
  Average Duration of Treatment Success, Median: 57.0 days
  Duration of 1st Episode, Mean (SD): 179.2 (94.49) days
  Duration of 1st Episode, Median: 197.0 days
